Results reported in patent US20200360341A1, “INDOMETHACIN MENTHYL ESTER-BASED PHARMACEUTICAL COMPOSITIONS AND THEIR USE AS ANTI-INFLAMMATORY AGENTS” (OBSHESTVO S OGRANICHENNOI OTVETSTVENNOSTJU "FORBOS”, priority 2017, published 2020).

Tests used:
[1] = Pharmacokinetics: indomethacin in blood plasma after oral administration; format: in vivo, rats (Sprague Dawley); conditions: 25 mg/kg
Description: Pharmacokinetic properties of two MEI-based compositions were studied: composition 1 (liposome-encapsulated MEI), produced as described in example 1, and composition 3 (MEI solution), produced as described in example 3. MEI substance (as a suspension in starch solution) and indomethacin were used as reference drugs. Rats of Sprague Dawley stock were used. All test compounds were administered orally to rats in 25 mg/kg dose. Animal blood was sampled at certain time points (0; 0.25; 0.5; 1, 2, 4, 8, 16 and 24 hours) for analysis. Indomethacin content in animal blood plasma was determined using high-performance liquid chromatography (HPLC) method.

serotonin-induced edema = assay: Serotonin-induced paw edema (acute inflammation); format: in vivo, rats (Sprague Dawley); conditions: oral; for Inflammation inhibition index: 2 h before serotonin, 30 min after serotonin, n = 8
Description: Anti-inflammatory activity of MEI-based pharmaceutical compositions compared to MEI substance (as a suspension in starch solution) and indomethacin after oral administration was studied in a model of acute inflammation-paw edema induced by inflammation mediator serotonin. Rats of Sprague Dawley stock were used. […] Test compounds were administered orally 2 hours before the serotonin administration. […] Inflammation severity was measured by plethyosmography as the difference between the masses of control and test paws, expressed in ml. Anti-inflammatory activity of the test compounds was assessed by the inhibition index, calculated using the following formula: II=(([…])×100%, where II-inflammation inhibition index in %; Set-severity of inflammation in the control group, ml; St-severity of inflammation in the test group, ml.

[2] = system: adjuvant-induced rheumatoid arthritis; assay: Adjuvant-induced rheumatoid arthritis, inflammation severity by plethysmography; format: in vivo
Description: (§1) Anti-inflammatory and analgesic activity of MEI-based pharmaceutical composition after oral administration was studied in a model of chronic inflammation—adjuvant-induced rheumatoid arthritis in rats. To induce arthritis the rats were administered 100 mcl of complete Freund adjuvant (CFA), supplied by Sigma Aldrich, into the plantar surface of right hind paw. The control (intact) group 1 has received 100 mcl of saline. After CFA injection, local inflammation develops in a few hours, with subsequent pathologic changes in metacarpophalangeal joints and distal interphalangeal joints. Test compound (composition 3—MEI solution) and the reference drug (indomethacin) were administered once daily orally for 22 days, starting from 7th day after pathology induction. Test compound was administered in 6.25, 12.5 and 25 mg/kg doses. […] To assess the anti-inflammatory action of MEI in animals by pelthysmography, inflammation severity was measured as the difference between the masses of control and test paws, expressed in ml. Analgesic activity of MEI in animals was assessed by tactile reactivity threshold using the method of Chaplan et al. using the kit of 8 standard von Frey hairs (Stoelting, USA).

[3] = system: adjuvant-induced rheumatoid arthritis; assay: Adjuvant-induced rheumatoid arthritis, tactile reactivity threshold (von Frey hairs); format: in vivo, rats
Description: as §1

yeast-induced fever = assay: Yeast-induced fever (antipyretic activity); format: in vivo, rats (Sprague Dawley); conditions: n = 6
Description: Antipyretic activity of MEI-based pharmaceutical composition was studied in a model of yeast-induced fever in rats. Rats of Sprague Dawley stock were used. Fever was induced in rats by subcutaneous administration of baker's yeast suspension in 2000 mg/kg dose (calculated for dry yeast basis) in 2 ml volume into the animal withers 18 hours before test compound administration. Animal body temperature was measured using an electronic rectal thermometer (MLT1403 Rectal Temperature Probe and PowerLab 4/35 4-channel registration system module, ADlnstruments PtyLtd, Australia). Temperature was measured before yeast administration and 18 h after yeast administration. Afterwards the animals were administered the test compound, MEI-based pharmaceutical composition (composition 3—MEI solution, produced as described in Example 3) in 25, 50 and 100 mg/kg doses. Indomethacin in 10 mg/kg dose was used as a reference drug. Animals in control group have received the vehicle. Temperature was measured 2 and 4 hours after test compound administration.

gastric mucosa = assay: Ulcerogenic action on gastric mucosa after fourfold oral administration; format: in vivo, rats; conditions: for Average score (ulcerogenic action) / Average number of erosions / Average number of ulcers: 4 times orally; for Average score (ulcerogenic action): scale 0 (no damage) to 4 (gross damage); for Average number of erosions / Average number of ulcers: stomach 3 h after last administration
Description: Ulcerogenic action was measured using the following 4-point scale: 0—no damage; 0.5—slight hyperemia of gastric mucosa; 1—weak localized damage of gastric mucosa (single point bleeding, severe hyperemia); 2—weak distributed damage of gastric mucosa (small ulcers, erosions, multiple bleeding); 3—severe and distributed damage of gastric mucosa (erosions, ulcers, bleeding); 4—gross damage of the whole stomach (massive bleeding, erosion, ulcers, perforation).

[4] = rats, oral administration; cited from earlier work
[5] = system: carrageenan-induced edema; assay: Carrageenan-induced edema, intraperitoneal administration; format: in vivo, rats (Sprague Dawley); conditions: after 4 h
Description: Anti-inflammatory activity of MEI-based pharmaceutical composition after parenteral administration was studied in a model of carrageenan-induced edema. Rats of Sprague Dawley stock were used. 50 mcl of saline (“sodium chloride 0.9% solution for infusion”, NPK ESCOM, Russia) was injected intraplantarly into one hind paw (control paw), while 50 mcl of 1% λ-carrageenan solution was injected into another paw.
Inflammation severity was measured after 4 h using a plethysmometer (IITC Life Science, USA). Inflammation severity was measured by plethyosmography as the difference between the masses of control and test paws, expressed in ml. Test compound, pharmaceutical composition […] (MEI solution) was administered parenterally (intraperitoneally) 1 hour before λ-carrageenan administration, animals receiving the same amount of the vehicle were used as control. The animals were deprived of food 24 h before the study, water access was not limited.

[6] = 1 mg/kg oral once daily from day 7, day 21
[7] = 1 mg/kg oral once daily from day 7, day 28
[8] = 1 mg/kg oral once daily, day 7 (before test compound administration)
[9] = composition 3 (MEI solution) 6.25 mg/kg oral once daily from day 7, day 21
[10] = composition 3 (MEI solution) 6.25 mg/kg oral once daily from day 7, day 28
[11] = composition 3 (MEI solution) 6.25 mg/kg oral once daily, day 7 (before test compound administration)
[12] = composition 3 (MEI solution) 12.5 mg/kg oral once daily from day 7, day 21
[13] = composition 3 (MEI solution) 12.5 mg/kg oral once daily from day 7, day 28
[14] = composition 3 (MEI solution) 12.5 mg/kg oral once daily, day 7 (before test compound administration)
[15] = composition 3 (MEI solution) 25 mg/kg oral once daily from day 7, day 21
[16] = composition 3 (MEI solution) 25 mg/kg oral once daily from day 7, day 28
[17] = composition 3 (MEI solution) 25 mg/kg oral once daily, day 7 (before test compound administration)
[18] = composition 3 (MEI solution) 25 mg/kg oral
[19] = composition 3 (MEI solution) 50 mg/kg oral
[20] = composition 3 (MEI solution) 100 mg/kg oral
[21] = MEI-based composition 100 mg/kg

COc1ccc2c(c1)c(CC(=O)O)c(C)n2C(=O)c1ccc(Cl)cc1 [Indomethacin, 1-(4-chlorobenzoyl)-5-methoxy-2-methyl-1H-indole-3-acetic acid]
Tmax ([1]; Sprague-Dawley, rat blood plasma, read-out: time of reaching the maximal concentration (Tmax) of indomethacin): 4 h
Cmax ([1]; Sprague-Dawley, rat, plasma, indomethacin measured by HPLC, read-out: maximal concentration of indomethacin in rat blood plasma (Cmax)): 65.5 µg/mL
Inflammation inhibition index (serotonin-induced edema; 10 mg/kg): 43.5%
inflammation severity ([2]; 1 mg/kg oral once daily from day 7, day 14): 1.8 ± 0.24 mL
inflammation severity [2, 6]: 1.5 ± 0.18 mL
inflammation severity [2, 7]: 1.4 ± 0.28 mL
inflammation severity [2, 8]: 3.0 ± 0.59 mL
animal mortality ([2]; 5 mg/kg, oral once daily, arthritis model): animal mortality is observed
median-effective tactile reactivity threshold in an injected limb [3, 6]: 14.5 ± 3.18 g
median-effective tactile reactivity threshold in an injected limb [3, 7]: 16.0 ± 3.04 g
median-effective tactile reactivity threshold in an injected limb [3, 8]: 9.9 ± 2.34 g
Average body temperature 2 h after test compound administration (yeast-induced fever; 10 mg/kg): −0.98 °C
Average body temperature 4 h after test compound administration (yeast-induced fever; 10 mg/kg): −0.85 °C
Average score (ulcerogenic action) (gastric mucosa; 5 mg/kg): 3
Average number of erosions (gastric mucosa; 5 mg/kg): 3.2
Average number of ulcers (gastric mucosa; 5 mg/kg): 8
gastric mucosa findings (gastric mucosa; four 5 mg/kg doses, oral): multiple ulcers and erosions
LD50 [4]: less than 15 mg/kg

COc1ccc2c(c1)c(CC(=O)OC1CC(C)CCC1C(C)C)c(C)n2C(=O)c1ccc(Cl)cc1 (stereo not shown) [MEI]
indomethacin concentration in blood plasma ([1]; suspension in starch solution, any time point 0-24 h): below the detection limit
anti-inflammatory effect in model of acute inflammation (serotonin-induced edema; 25 mg/kg): doesn't have significant anti-inflammatory effects
Inflammation inhibition index (serotonin-induced edema; 25 mg/kg active agent): 4.3%
inflammation severity ([2]; composition 3 (MEI solution) 6.25 mg/kg oral once daily from day 7, day 14): 2.5 ± 0.76 mL
inflammation severity [2, 9]: 1.8 ± 0.49 mL
inflammation severity [2, 10]: 1.9 ± 0.51 mL
inflammation severity [2, 11]: 2.8 ± 0.54 mL
inflammation severity ([2]; composition 3 (MEI solution) 12.5 mg/kg oral once daily from day 7, day 14): 1.9 ± 0.37 mL
inflammation severity [2, 12]: 2.0 ± 0.40 mL
inflammation severity [2, 13]: 1.1 ± 0.21 mL
inflammation severity [2, 14]: 2.6 ± 0.38 mL
inflammation severity ([2]; composition 3 (MEI solution) 25 mg/kg oral once daily from day 7, day 14): 1.5 ± 0.22 mL
inflammation severity [2, 15]: 0.9 ± 0.07 mL
inflammation severity [2, 16]: 0.8 ± 0.12 mL
inflammation severity [2, 17]: 2.4 ± 0.43 mL
median-effective tactile reactivity threshold in an injected limb [3, 9]: 10.4 ± 3.09 g
median-effective tactile reactivity threshold in an injected limb [3, 10]: 9.6 ± 2.67 g
median-effective tactile reactivity threshold in an injected limb [3, 11]: 11.7 ± 2.93 g
median-effective tactile reactivity threshold in an injected limb [3, 12]: 13.3 ± 2.55 g
median-effective tactile reactivity threshold in an injected limb [3, 13]: 14.8 ± 2.35 g
median-effective tactile reactivity threshold in an injected limb [3, 14]: 11.8 ± 3.12 g
median-effective tactile reactivity threshold in an injected limb [3, 15]: 16.6 ± 2.64 g
median-effective tactile reactivity threshold in an injected limb [3, 16]: 18.2 ± 2.57 g
median-effective tactile reactivity threshold in an injected limb [3, 17]: 9.8 ± 2.14 g
Edema size ([5]; composition No 4 (MEI solution) 0.1 mg/kg intraperitoneally 1 h before carrageenan): 1.011 ± 0.115 mL
Edema size, % from control ([5]; composition No 4 (MEI solution) 0.1 mg/kg intraperitoneally): 91.2 % from control
Edema size ([5]; composition No 4 (MEI solution) 0.5 mg/kg intraperitoneally 1 h before carrageenan): 0.675 ± 0.065 mL
Edema size, % from control ([5]; composition No 4 (MEI solution) 0.5 mg/kg intraperitoneally): 60.9 % from control
Edema size ([5]; composition No 4 (MEI solution) 1.0 mg/kg intraperitoneally 1 h before carrageenan): 0.552 ± 0.097 mL
Edema size, % from control ([5]; composition No 4 (MEI solution) 1.0 mg/kg intraperitoneally): 45.0 % from control
Edema size ([5]; composition No 4 (MEI solution) 10 mg/kg intraperitoneally 1 h before carrageenan): 0.201 ± 0.176 mL
Edema size, % from control ([5]; composition No 4 (MEI solution) 10 mg/kg intraperitoneally): 18.1 % from control
Edema size ([5]; composition No 4 (MEI solution) 50 mg/kg intraperitoneally 1 h before carrageenan): 0.288 ± 0.152 mL
Edema size, % from control ([5]; composition No 4 (MEI solution) 50 mg/kg intraperitoneally): 26.0 % from control
Average body temperature 2 h after test compound administration (yeast-induced fever; [18]): −0.53 °C
Average body temperature 4 h after test compound administration (yeast-induced fever; [18]): −0.45 °C
Average body temperature 2 h after test compound administration (yeast-induced fever; [19]): −0.93 °C
Average body temperature 4 h after test compound administration (yeast-induced fever; [19]): −0.82 °C
Average body temperature 2 h after test compound administration (yeast-induced fever; [20]): −0.78 °C
Average body temperature 4 h after test compound administration (yeast-induced fever; [20]): −0.68 °C
Average score (ulcerogenic action) (gastric mucosa; MEI-based composition 25 mg/kg): 0
Average number of erosions (gastric mucosa; MEI-based composition 25 mg/kg): 0
Average number of ulcers (gastric mucosa; MEI-based composition 25 mg/kg): 0
Average score (ulcerogenic action) (gastric mucosa; MEI-based composition 50 mg/kg): 0
Average number of erosions (gastric mucosa; MEI-based composition 50 mg/kg): 0
Average number of ulcers (gastric mucosa; MEI-based composition 50 mg/kg): 0
Average score (ulcerogenic action) (gastric mucosa; [21]): 0.4
Average number of erosions (gastric mucosa; [21]): 0
Average number of ulcers (gastric mucosa; [21]): 0.8
